Laboratory results published in patent US20180244699A1, “1-HYDROXY-3H-2,1-BENZOXABOROLE DERIVATIVES AND THEIR USE AS MICROBIOCIDES” (Syngenta Participations AG, priority 2015, published 2018).

Assays:
[1] = system: Phytophthora infestans; assay: whole plant or invertebrate; type: in vivo; conditions: in Solanum lycopersicum, foliar, read-out: control of Phytophthora infestans
[2] = system: Monographella nivalis (Microdochium nivale); assay: Monographella nivalis (Microdochium nivale) / liquid culture (foot rot cereals); type: cell-based; conditions: growth inhibition photometrically 4-5 days after application, compared to untreated control
How it was run: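 Conidia from cryogenic storage were mixed into potato dextrose broth and added to wells holding test compound in DMSO. Incubation was at 24° C, with growth inhibition measured photometrically 4-5 days after application.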

[3] = system: Mycosphaerella arachidis (Cercospora arachidicola); assay: Mycosphaerella arachidis (Cercospora arachidicola) / liquid culture (early leaf spot); type: cell-based; conditions: growth inhibition photometrically 4-5 days after application, compared to untreated control
Experimental: (§1) 9. Mycosphaerella arachidis (Cercospora arachidicola)/Liquid Culture (Early Leaf Spot) Conidia of the fungus from cryogenic storage are directly mixed into nutrient broth (PDB potato dextrose broth). After placing a (DMSO) solution of test compound into a microtiter plate (96-well format), the nutrient broth containing the fungal spores is added. The test plates are incubated at 24° C. and the inhibition of growth is determined photometrically 4-5 days after application.

[4] = system: Gaeumannomyces graminis; assay: Gaeumannomyces graminis / liquid culture (take-all of cereals); type: cell-based; conditions: growth inhibition photometrically 4-5 days after application, compared to untreated control
How it was run: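 Mycelial fragments from cryogenic storage in potato dextrose broth added to compound in DMSO, 96-well format. Incubated at 24° C; growth inhibition read photometrically 4-5 days after application.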

[5] = system: Pythium ultimum; assay: Pythium ultimum / liquid culture (seedling damping off); type: cell-based; conditions: Globisporangium ultimum, growth inhibition photometrically 2-3 days after application, compared to untreated control
How it was run: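 Fungal mycelia fragments and oospores from fresh liquid culture mixed into potato dextrose broth and added to DMSO solutions of test compound. Incubated at 24° C.; growth inhibition read photometrically 2-3 days after application.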

[6] = system: Mycosphaerella graminicola (Septoria tritici); assay: Mycosphaerella graminicola (Septoria tritici) / liquid culture (Septoria blotch); type: cell-based; conditions: Zymoseptoria tritici, growth inhibition photometrically 4-5 days after application, compared to untreated control
Experimental: as §1, with “18.” for “9.”, “graminicola (Septoria tritici)/Liquid” for “arachidis (Cercospora arachidicola)/Liquid”, “(Septoria Blotch)” for “(Early Leaf Spot)”

[7] = system: Sclerotinia sclerotiorum; assay: Sclerotinia sclerotiorum / liquid culture (cottony rot); type: cell-based; conditions: growth inhibition photometrically 3-4 days after application, compared to untreated control
Experimental: 17. Sclerotinia sclerotiorum/Liquid Culture (Cottony Rot) Mycelia fragments of a newly grown liquid culture of the fungus are directly mixed into nutrient broth (PDB potato dextrose broth). After placing a (DMSO) solution of test compound into a microtiter plate (96-well format) the nutrient broth containing the fungal material is added. The test plates are incubated at 24° C. and the inhibition of growth is determined photometrically 3-4 days after application.

[8] = system: Glomerella lagenarium (Colletotrichum lagenarium); assay: Glomerella lagenarium (Colletotrichum lagenarium) / liquid culture (anthracnose); type: cell-based; conditions: Colletotrichum orbiculare, growth inhibition photometrically 3-4 days after application, compared to untreated control
Experimental: as §1, with “3. Glomerella lagenarium (Colletotrichum lagenarium)/Liquid” for “9. Mycosphaerella arachidis (Cercospora arachidicola)/Liquid”, “(Anthracnose)” for “(Early Leaf Spot)”, “measured” for “determined”, “3-4” for “4-5”

[9] = system: Thanatephorus cucumeris (Rhizoctonia solani); assay: Thanatephorus cucumeris (Rhizoctonia solani) / liquid culture (foot rot, damping-off); type: cell-based; conditions: growth inhibition photometrically 3-4 days after application, compared to untreated control
Experimental: 16. Thanatephorus cucumeris (Rhizoctonia solani)/Liquid Culture (Foot Rot, Damping-Off) Mycelia fragments of a newly grown liquid culture of the fungus are directly mixed into nutrient broth (PDB potato dextrose broth). After placing a (DMSO) solution of the test compounds into a microtiter plate (96-well format), the nutrient broth containing the fungal material is added. The test plates are incubated at 24° C. and the inhibition of growth is determined photometrically 3-4 days after application.

[10] = system: Puccinia recondite f. sp. tritici; assay: Puccinia recondite f. sp. tritici / wheat / leaf disc preventative (brown rust); type: in vivo; conditions: foliar, wheat leaf segments, inoculated 1 day after application, compared to untreated control
Experimental: 13. Puccinia recondite f. Sp. Tritici/Wheat/Leaf Disc Preventative (Brown Rust) Wheat leaf segments cv. Kanzler are placed on agar in multiwell plates (24-well format) and sprayed with the formulated test compound diluted in water. The leaf disks are inoculated with a spore suspension of the fungus 1 day after application. The inoculated leaf segments are incubated at 19° C. and 75% rh under a light regime of 12 h light/12 h darkness in a climate cabinet and the activity of a compound is assessed as percent disease control compared to untreated when an appropriate level of disease damage appears in untreated check leaf segments (7-9 days after application).

[11] = system: Blumeria graminis f. sp. tritici (Erysiphe graminis f. sp. tritici); assay: Blumeria graminis f. sp. tritici / wheat / leaf disc preventative (powdery mildew on wheat); type: in vivo; conditions: 200 ppm, wheat leaf segments, inoculated 1 day after application, compared to untreated control
Experimental: 4. Blumeria Graminis f. Sp. Tritici (Erysiphe graminis f. Sp. Tritici)/Wheat/Leaf Disc Preventative (Powdery Mildew on Wheat)
Wheat leaf segments cv. Kanzler are placed on agar in a multiwell plate (24-well format) and sprayed with the formulated test compound diluted in water. The leaf disks are inoculated by shaking powdery mildew infected plants above the test plates 1 day after application. The inoculated leaf disks are incubated at 20° C. and 60% rh under a light regime of 24 h darkness followed by 12 h light/12 h darkness in a climate chamber and the activity of a compound is assessed as percent disease control compared to untreated when an appropriate level of disease damage appears on untreated check leaf segments (6-8 days after application).

| SMILES | pest or weed control at 200 ppm [1] [%] | inhibition of growth at 20 ppm [2] [%] | inhibition of growth at 20 ppm [3] [%] | inhibition of growth at 20 ppm [4] [%] | inhibition of growth at 20 ppm [5] [%] | inhibition of growth at 20 ppm [6] [%] | inhibition of growth at 20 ppm [7] [%] | inhibition of growth at 20 ppm [8] [%] | inhibition of growth at 20 ppm [9] [%] | melting point [°C] | pest or weed control at 200 ppm [10] [%] | control of Blumeria graminis f. sp. tritici [11] |
| --- | --- | --- | --- | --- | --- | --- | --- | --- | --- | --- | --- | --- |
| COC(=O)c1ccc2c(c1OC)B(O)OC2 [Compound 1, methyl 1-hydroxy-7-methoxy-3H-2,1-benzoxaborole-6-carboxylate] | ≥ 80 | ≥ 80 | ≥ 80 | ≥ 80 | ≥ 80 | ≥ 80 | ≥ 80 | ≥ 80 | ≥ 80 |  |  |  |
| COC(=O)c1ccc2c(c1O)B(O)OC2 [Compound 2, methyl 1,7-dihydroxy-3H-2,1-benzoxaborole-6-carboxylate] | ≥ 80 | ≥ 80 | ≥ 80 | ≥ 80 | ≥ 80 | ≥ 80 | ≥ 80 | ≥ 80 | ≥ 80 | 146 to 148 |  |  |
| COC(=O)c1ccc2c(c1Cl)B(O)OC2 [Compound 3, methyl 7-chloro-1-hydroxy-3H-2,1-benzoxaborole-6-carboxylate] | ≥ 80 | ≥ 80 | ≥ 80 |  | ≥ 80 | ≥ 80 | ≥ 80 | ≥ 80 | ≥ 80 |  | ≥ 80 |  |
| COc1c(C(=O)NCc2ccccc2F)ccc2c1B(O)OC2 [Compound 5, N-[(2-fluorophenyl)methyl]-1-hydroxy-7-methoxy-3H-2,1-benzoxaborole-6-carboxamide] |  |  |  |  | ≥ 80 |  |  |  |  |  | ≥ 80 |  |
| COc1c(C(=O)NCc2ccc(Cl)cc2)ccc2c1B(O)OC2 [Compound 6, N-[(4-chlorophenyl)methyl]-1-hydroxy-7-methoxy-3H-2,1-benzoxaborole-6-carboxamide] |  | ≥ 80 |  | ≥ 80 | ≥ 80 |  |  |  |  |  | ≥ 80 |  |
| CNC(=O)c1ccc2c(c1OC)B(O)OC2 [Compound 8, 1-hydroxy-7-methoxy-N-methyl-3H-2,1-benzoxaborole-6-carboxamide] |  |  | ≥ 80 |  | ≥ 80 |  |  |  |  |  | ≥ 80 |  |
| CCOC(=O)c1ccc2c(c1Cl)B(O)OC2 [Compound 9, ethyl 7-chloro-1-hydroxy-3H-2,1-benzoxaborole-6-carboxylate] | ≥ 80 | ≥ 80 |  | ≥ 80 | ≥ 80 | ≥ 80 |  | ≥ 80 | ≥ 80 | 132 to 133 | ≥ 80 |  |
| COc1c(C(=O)OCC(F)F)ccc2c1B(O)OC2 [Compound 12, 2,2-difluoroethyl 1-hydroxy-7-methoxy-3H-2,1-benzoxaborole-6-carboxylate] | ≥ 80 | ≥ 80 |  | ≥ 80 | ≥ 80 | ≥ 80 |  | ≥ 80 |  |  |  |  |
| COc1c(C(=O)NC(C)c2ncc(F)cc2F)ccc2c1B(O)OC2 (stereo not shown) [Compound 20, N-[1-(3,5-difluoro-2-pyridyl)ethyl]-1-hydroxy-7-methoxy-3H-2,1-benzoxaborole-6-carboxamide] |  |  |  |  |  |  |  |  |  |  |  | at least 80% |
| COc1c(C(=O)NCCc2ccccc2)ccc2c1B(O)OC2 [Compound 33, 1-hydroxy-7-methoxy-N-phenethyl-3H-2,1-benzoxaborole-6-carboxamide] |  | ≥ 80 |  |  |  |  |  |  |  |  | ≥ 80 |  |
| COc1c(C(=O)NC(C)C)ccc2c1B(O)OC2 [Compound 34, 1-hydroxy-N-isopropyl-7-methoxy-3H-2,1-benzoxaborole-6-carboxamide] |  |  |  |  | ≥ 80 |  |  |  |  |  | ≥ 80 |  |
| COc1c(C(=O)Nc2cnoc2)ccc2c1B(O)OC2 [Compound 35, 1-hydroxy-N-isoxazol-4-yl-7-methoxy-3H-2,1-benzoxaborole-6-carboxamide] |  |  |  |  | ≥ 80 |  |  |  |  |  | ≥ 80 |  |
| COc1c(C(=O)OCn2cccn2)ccc2c1B(O)OC2 [Compound 86, pyrazol-1-ylmethyl 1-hydroxy-7-methoxy-3H-2,1-benzoxaborole-6-carboxylate] | ≥ 80 | ≥ 80 | ≥ 80 | ≥ 80 | ≥ 80 | ≥ 80 | ≥ 80 | ≥ 80 | ≥ 80 |  |  |  |
| COc1c(C(=O)OCn2nc(C)cc2C)ccc2c1B(O)OC2 [Compound 103, (3,5-dimethylpyrazol-1-yl)methyl 1-hydroxy-7-methoxy-3H-2,1-benzoxaborole-6-carboxylate] | ≥ 80 |  |  | ≥ 80 | ≥ 80 |  |  |  |  |  |  |  |
| COc1c(C(=O)OCCOC(C)C)ccc2c1B(O)OC2 [Compound 109, 2-isopropoxyethyl 1-hydroxy-7-methoxy-3H-2,1-benzoxaborole-6-carboxylate] | ≥ 80 | ≥ 80 |  | ≥ 80 | ≥ 80 |  |  |  |  |  |  |  |
| COc1c(C(=O)O)ccc2c1B(O)OC2 [Compound 131, 1-hydroxy-7-methoxy-3H-2,1-benzoxaborole-6-carboxylic acid] |  |  |  |  |  |  |  |  |  | 181 to 182.4 |  |  |
| COc1c(C(=O)OCC#Cc2ccccc2)ccc2c1B(O)OC2 [Compound 132, 3-phenylprop-2-ynyl 1-hydroxy-7-methoxy-3H-2,1-benzoxaborole-6-carboxylate] |  | ≥ 80 |  | ≥ 80 | ≥ 80 | ≥ 80 |  | ≥ 80 |  |  | ≥ 80 |  |
